According to patent publication US7445897B2, “Sequence variants of multi-drug resistance genes, MDR1 and MRP1, and methods for assessment of drug penetration and disposition” (University of Washington, priority 2004, dated 2008):
Read-outs that look alike come from different tables or passages of the source.

Key:
LLC-PK1 control cells [1] = assay: Intracellular uptake of HIV protease inhibitors; format: in vitro ADME, porcine
[2] = van Heeswijk et al. 2001; cited from earlier work
LLC-PK1 control cells [3] = system: LLC-PK1 control cells
[4] = system: P-gp (MDR11199, G1199A) in recombinant LLC-PK1 cells; conditions: human, LLC-PK1
MDR1 (G1199T variant) = assay: Cytotoxic drug sensitivity assay (MTS); format: cell-based, human; conditions: human, HEK293 cells recombinantly expressing MDR1 G1199T; HEK MDR1 G1199T; 72hours, MTS; read-out: EC50 (Mean ± S.D.)
MDR1 (wild type) [5] = assay: Cytotoxic drug sensitivity assay (MTS); format: cell-based, human; conditions: human, HEK293 cells recombinantly expressing MDR1 wild type, HEK MDR1 WT; 72hours, MTS; read-out: EC50 (Mean ± S.D.)
[6] = system: recombinant MDR11199 LLC-PK1 cells; assay: Cytotoxic drug sensitivity assay (3H-thymidine); format: cell-based, porcine; conditions: for EC50 fold-change from control: MDR11199 vs LLC-PK1 control; for EC50: Sus scrofa, 72 h, MDR11199 LLC-PK1 cells, 3 days with drug
Procedure: (§1) On the second day of the incubation, 1 μCi of ^3H-thymidine (specific activity: 81.1 Ci/mmole) was added to each well and incubated overnight. Cells were harvested on day 3 with a cell harvester.
(§2) Dose response analysis was performed for doxorubicin, vincristine and vinblastine. […] TRANSEPITHELIAL TRANSPORT

[7] = system: recombinant MDR1wt LLC-PK1 cells; assay: Cytotoxic drug sensitivity assay (3H-thymidine); format: cell-based, porcine; conditions: for EC50 fold-change from control: MDR1wt vs LLC-PK1 control; for EC50: Sus scrofa, 72 h, MDR1wt LLC-PK1 cells, 3 days with drug
Procedure: as §1, §2

LLC-PK1 control cells [8] = assay: Cytotoxic drug sensitivity assay (3H-thymidine); format: cell-based, porcine; conditions: Sus scrofa, 72 h, 3 days with drug
Procedure: as §1, §2

MDR1 (G1199A variant) = assay: in vitro; conditions: human
[9] = system: HEK negative control cells; assay: Cytotoxic drug sensitivity assay (MTS); format: cell-based, human; conditions: Homo sapiens, 72 h, HEK Control; 72hours, MTS; read-out: EC50 (Mean ± S.D.)
MDR1 (wild type) [10] = molecular target: MDR1 (wild type) (Homo sapiens, UniProt P08183, G185V/S893A); assay: in vitro
MDR1 (1199A variant) = MDR1 (1199A variant) (Homo sapiens, UniProt P08183, G185V/S400N/S893A); assay: Intracellular uptake of HIV protease inhibitors; conditions: recombinant LLC-PK1 cells expressing MDR1-1199A
[11] = healthy human subjects; Greiner et al. 1999; cited from earlier work
rMRP1 [12] = molecular target: T1, rMRP1 (Rattus norvegicus, UniProt Q8CG09); assay: Transepithelial transport in differentiated rMRP1-MDCK cells; format: in vitro ADME
T1 construct: expressed in transfected cells
From the text: These stable recombinant cells can be used to evaluate drug candidates that are either MRP1 substrates or inhibitors, as well as further elucidate MRP1 structure and function.

rMRP1 [13] = molecular target: T1, rMRP1; assay: Calcein efflux in rMRP1-expressing MDCK-II cells; format: cell-based; conditions: indomethacin 100 μM, MK571 10 μM
From the text: These recombinant cells were derived from MDCK-II epithelial cells that form tight junctions, suitable for transepithelial transport assessment. Several stable clones of epithelial cells that consistently express rMRP1 were constructed, which could be differentiated to form a polarized monolayer for transepithelial flux studies. […] The cells that consistently over-expressed rMRP1 were expanded from a single cell clone and analyzed for MRP1 function.

[14] = protease inhibitor + GF120918 (1 μM)

T1 sequence (Q8CG09 whole entry): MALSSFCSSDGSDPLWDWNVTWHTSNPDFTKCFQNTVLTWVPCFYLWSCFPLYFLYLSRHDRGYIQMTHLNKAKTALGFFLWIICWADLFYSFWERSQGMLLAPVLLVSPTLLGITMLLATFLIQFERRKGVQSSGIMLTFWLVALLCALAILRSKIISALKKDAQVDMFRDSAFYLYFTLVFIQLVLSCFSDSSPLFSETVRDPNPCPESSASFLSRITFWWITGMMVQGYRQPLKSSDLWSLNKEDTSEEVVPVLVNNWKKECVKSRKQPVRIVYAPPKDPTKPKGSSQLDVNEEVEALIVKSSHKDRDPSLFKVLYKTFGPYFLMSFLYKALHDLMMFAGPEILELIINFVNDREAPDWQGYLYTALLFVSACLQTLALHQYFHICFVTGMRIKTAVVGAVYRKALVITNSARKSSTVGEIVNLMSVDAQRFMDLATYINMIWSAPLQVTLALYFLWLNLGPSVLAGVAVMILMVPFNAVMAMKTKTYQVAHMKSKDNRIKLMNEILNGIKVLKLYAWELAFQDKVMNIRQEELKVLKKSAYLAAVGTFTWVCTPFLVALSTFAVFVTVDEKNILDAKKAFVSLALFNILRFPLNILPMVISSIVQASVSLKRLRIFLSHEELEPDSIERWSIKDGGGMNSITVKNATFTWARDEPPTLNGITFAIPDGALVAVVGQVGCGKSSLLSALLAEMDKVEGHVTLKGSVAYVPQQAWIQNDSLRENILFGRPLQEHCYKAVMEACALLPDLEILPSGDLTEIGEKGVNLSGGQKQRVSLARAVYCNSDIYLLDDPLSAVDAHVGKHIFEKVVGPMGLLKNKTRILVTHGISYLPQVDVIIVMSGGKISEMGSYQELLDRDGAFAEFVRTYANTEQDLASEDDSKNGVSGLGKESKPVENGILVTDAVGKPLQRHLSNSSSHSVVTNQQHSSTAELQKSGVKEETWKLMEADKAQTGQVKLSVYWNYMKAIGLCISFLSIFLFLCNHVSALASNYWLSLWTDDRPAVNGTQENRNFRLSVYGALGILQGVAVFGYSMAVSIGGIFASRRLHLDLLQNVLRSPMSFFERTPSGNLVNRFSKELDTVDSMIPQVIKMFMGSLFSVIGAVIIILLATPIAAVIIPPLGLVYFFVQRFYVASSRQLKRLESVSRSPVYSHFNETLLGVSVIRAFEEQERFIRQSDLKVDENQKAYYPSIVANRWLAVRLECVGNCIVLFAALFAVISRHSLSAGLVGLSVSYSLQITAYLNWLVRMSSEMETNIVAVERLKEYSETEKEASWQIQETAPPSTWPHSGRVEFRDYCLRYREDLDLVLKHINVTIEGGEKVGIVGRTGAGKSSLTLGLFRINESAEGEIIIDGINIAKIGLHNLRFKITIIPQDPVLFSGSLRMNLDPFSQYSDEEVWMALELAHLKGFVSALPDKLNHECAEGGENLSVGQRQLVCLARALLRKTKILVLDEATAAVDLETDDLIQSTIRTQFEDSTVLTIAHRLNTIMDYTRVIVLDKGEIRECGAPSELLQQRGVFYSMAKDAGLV
Sequence of MDR1 (wild type) (Homo sapiens, UniProt P08183, G185V/S893A) (P08183 whole entry G185V/S893A): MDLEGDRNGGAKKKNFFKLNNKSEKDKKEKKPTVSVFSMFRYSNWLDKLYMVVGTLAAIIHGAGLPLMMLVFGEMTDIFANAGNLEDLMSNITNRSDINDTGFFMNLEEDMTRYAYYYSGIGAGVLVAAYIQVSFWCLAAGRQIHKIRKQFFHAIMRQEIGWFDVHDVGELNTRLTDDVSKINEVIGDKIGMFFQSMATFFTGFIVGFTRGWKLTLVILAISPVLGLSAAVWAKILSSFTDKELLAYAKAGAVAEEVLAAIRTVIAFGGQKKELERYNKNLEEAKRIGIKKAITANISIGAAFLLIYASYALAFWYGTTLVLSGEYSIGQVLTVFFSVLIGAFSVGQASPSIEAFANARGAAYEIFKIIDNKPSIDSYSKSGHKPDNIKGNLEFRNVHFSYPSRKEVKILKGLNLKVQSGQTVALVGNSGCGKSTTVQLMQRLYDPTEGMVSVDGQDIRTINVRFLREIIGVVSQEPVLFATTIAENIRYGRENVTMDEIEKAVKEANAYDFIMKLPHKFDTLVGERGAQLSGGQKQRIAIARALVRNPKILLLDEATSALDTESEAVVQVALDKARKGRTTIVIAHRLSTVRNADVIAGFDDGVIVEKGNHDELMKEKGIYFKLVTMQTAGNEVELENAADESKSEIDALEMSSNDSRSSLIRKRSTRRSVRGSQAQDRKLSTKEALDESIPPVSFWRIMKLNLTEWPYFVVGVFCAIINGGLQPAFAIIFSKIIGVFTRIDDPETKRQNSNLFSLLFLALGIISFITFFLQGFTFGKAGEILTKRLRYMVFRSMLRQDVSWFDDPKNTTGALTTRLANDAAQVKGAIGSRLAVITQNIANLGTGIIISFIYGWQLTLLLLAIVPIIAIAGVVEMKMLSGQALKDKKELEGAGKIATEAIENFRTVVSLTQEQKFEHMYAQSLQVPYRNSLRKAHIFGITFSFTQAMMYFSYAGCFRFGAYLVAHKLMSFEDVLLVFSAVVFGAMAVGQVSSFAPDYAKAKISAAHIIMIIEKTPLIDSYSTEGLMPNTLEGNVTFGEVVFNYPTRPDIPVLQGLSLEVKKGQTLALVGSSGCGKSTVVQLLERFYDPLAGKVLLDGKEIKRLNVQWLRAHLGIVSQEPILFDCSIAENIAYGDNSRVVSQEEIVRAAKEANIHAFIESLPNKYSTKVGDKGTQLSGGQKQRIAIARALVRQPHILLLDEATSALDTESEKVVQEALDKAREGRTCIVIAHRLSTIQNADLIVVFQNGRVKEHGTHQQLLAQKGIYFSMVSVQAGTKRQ
Sequence of MDR1 (1199A variant) (P08183 whole entry G185V/S400N/S893A): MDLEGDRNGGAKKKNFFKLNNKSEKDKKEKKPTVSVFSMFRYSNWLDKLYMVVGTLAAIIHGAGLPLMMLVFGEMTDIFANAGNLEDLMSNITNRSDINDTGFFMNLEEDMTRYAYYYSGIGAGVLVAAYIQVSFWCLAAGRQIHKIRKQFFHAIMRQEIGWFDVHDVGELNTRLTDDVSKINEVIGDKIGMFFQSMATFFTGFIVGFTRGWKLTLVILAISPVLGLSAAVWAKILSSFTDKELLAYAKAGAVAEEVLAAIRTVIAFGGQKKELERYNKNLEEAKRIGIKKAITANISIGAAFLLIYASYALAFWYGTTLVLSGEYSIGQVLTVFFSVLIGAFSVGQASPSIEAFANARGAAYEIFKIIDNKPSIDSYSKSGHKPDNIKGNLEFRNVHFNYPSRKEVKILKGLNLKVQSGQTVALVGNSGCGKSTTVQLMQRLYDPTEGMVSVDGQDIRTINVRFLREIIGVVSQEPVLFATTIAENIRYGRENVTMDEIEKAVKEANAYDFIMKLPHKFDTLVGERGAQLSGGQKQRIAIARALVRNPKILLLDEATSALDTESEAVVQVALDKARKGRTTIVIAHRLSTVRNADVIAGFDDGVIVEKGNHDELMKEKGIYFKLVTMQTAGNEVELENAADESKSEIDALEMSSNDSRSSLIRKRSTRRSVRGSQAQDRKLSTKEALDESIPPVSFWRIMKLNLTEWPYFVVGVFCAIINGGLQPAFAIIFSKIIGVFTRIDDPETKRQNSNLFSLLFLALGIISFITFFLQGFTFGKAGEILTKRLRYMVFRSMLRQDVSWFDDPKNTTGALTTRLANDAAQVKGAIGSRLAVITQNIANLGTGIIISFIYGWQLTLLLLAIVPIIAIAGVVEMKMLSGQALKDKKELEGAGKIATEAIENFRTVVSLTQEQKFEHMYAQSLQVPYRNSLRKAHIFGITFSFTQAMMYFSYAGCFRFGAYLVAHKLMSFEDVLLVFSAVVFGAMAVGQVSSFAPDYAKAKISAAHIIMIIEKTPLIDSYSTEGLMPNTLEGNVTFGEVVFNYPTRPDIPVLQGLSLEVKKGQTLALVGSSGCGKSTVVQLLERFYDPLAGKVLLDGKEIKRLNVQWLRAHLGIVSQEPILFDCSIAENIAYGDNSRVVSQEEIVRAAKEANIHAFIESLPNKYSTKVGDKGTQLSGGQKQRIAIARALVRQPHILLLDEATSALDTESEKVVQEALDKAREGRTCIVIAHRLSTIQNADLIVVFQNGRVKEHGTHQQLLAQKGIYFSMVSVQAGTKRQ

Compound	Km (LLC-PK1 control cells [1]) [µM]	oral bioavailability in systemic circulation [2]	Rate of transfer dQ/dt ± s.d., A → B (LLC-PK1 control cells [3]; [14])	Rate of transfer dQ/dt ± s.d., B → A (LLC-PK1 control cells [3]; [14])	Rate of transfer dQ/dt ± s.d., A → B (LLC-PK1 control cells [3]; protease inhibitor alone, 5 μM)	Rate of transfer dQ/dt ± s.d., B → A (LLC-PK1 control cells [3]; protease inhibitor alone, 5 μM)	EC50 at 72 h (MDR1 (G1199T variant)) [µM]	EC50 at 72 h (MDR1 (wild type) [5]) [µM]	EC50 fold-change from control [6] [fold]	EC50 [6] [µM]	EC50 fold-change from control [7] [fold]	EC50 [7] [µM]	EC50 (LLC-PK1 control cells [8]) [µM]	EC50 (MDR1 (G1199A variant)) [µM]	EC50 [9] [µM]	other results
CC(C)c1nc(CN(C)C(=O)N[C@H](C(=O)N[C@@H](Cc2ccccc2)C[C@H](O)[C@H](Cc2ccccc2)NC(=O)OCc2cncs2)C(C)C)cs1 [ritonavir]	0.25	60-80%	6.46 ± 0.69	9.60 ± 0.75	6.46 ± 0.94	11.0 ± 0.5	–	–	–	–	–	–	–	–	–	decrease in apical-to-basolateral flux in MDR11199 cells compared to MDR1wt cells [4]: 2.3 fold; increase in basolateral-to-apical efflux in MDR11199 cells compared to MDR1wt [4]: 1.2 fold
COc1cccc2c1C(=O)c1c(O)c3c(c(O)c1C2=O)C[C@@](O)(C(=O)CO)C[C@@H]3O[C@H]1C[C@H](N)[C@H](O)[C@H](C)O1 [doxorubicin]	–	–	–	–	–	–	0.383 ± 0.039	1.11 ± 0.112	3.51	0.12 ± 0.032	4.53	0.155 ± 0.068	0.0342 ± 0.0031	2.18 ± 0.361	0.0455 ± 0.0251	–
CC(C)CN(C[C@@H](O)[C@H](Cc1ccccc1)NC(=O)O[C@H]1CCOC1)S(=O)(=O)c1ccc(N)cc1 [amprenavir]	0.25	35-90%	10.8 ± 0.9	10.2 ± 0.4	9.33 ± 0.46	11.6 ± 0.8	–	–	–	–	–	–	–	–	–	Vmax (LLC-PK1 control cells [1]): 0.048 pmole/min*10^6 cells; Km (MDR1 (wild type) [10]): 10.2 µM; Km (MDR1 (1199A variant)): 1 µM
C[C@H]1O[C@@H](O[C@H]2[C@@H](O)C[C@H](O[C@H]3[C@@H](O)C[C@H](O[C@H]4CC[C@@]5(C)[C@H](CC[C@@H]6[C@@H]5C[C@@H](O)[C@]5(C)[C@@H](C7=CC(=O)OC7)CC[C@]65O)C4)O[C@@H]3C)O[C@@H]2C)C[C@H](O)[C@@H]1O [digoxin]	–	–	–	–	–	–	–	–	–	–	–	–	–	–	–	range in the oral bioavailability from inter-individual variation in intestinal MDR1 expression [11]: 7 fold
CC[C@]1(O)C[C@@H]2CN(CCc3c([nH]c4ccccc34)[C@@](C(=O)OC)(c3cc4c(cc3OC)N(C)[C@H]3[C@@](O)(C(=O)OC)[C@H](OC(C)=O)[C@]5(CC)C=CCN6CC[C@]43[C@@H]65)C2)C1 [vinblastine]	–	–	–	–	–	–	0.0547 ± 0.00799	0.127 ± 0.013	23.8	0.0157	2.14	0.00141 ± 0.00051	0.00066 ± 0.00022	0.243 ± 0.0151	0.00145 ± 0.00023	resistance of MDR11199 cells relative to MDR1wt cells ([6]; MDR11199 vs MDR1wt, from EC50): about 11 fold; resistance of MDR11199 cells compared with MDR1wt cells ([6]; cytotoxicity studies, LLC-PK1): more resistant; directional transepithelial transport (rMRP1 [12]): exhibit directional transepithelial transport
COc1ccc2c(c1)c(CC(=O)O)c(C)n2C(=O)c1ccc(Cl)cc1 [indomethacin]	–	–	–	–	–	–	–	–	–	–	–	–	–	–	–	effect of MRP1 inhibitor on calcein efflux (rMRP1 [13]): suppressed efflux transport of calcein back to the control level
